Measured values: patent US9186406B2, “Compositions containing nucleosides and manganese and their uses” (The Henry M. Jackson Foundation for Advancement of Military …, priority 2007, dated 2015)

Key:
hFOB cells = test: apoptosis assay (Annexin V / PI flow cytometry) of hFOB cells 6 days after IR; assay type: cell-based, Human; conditions: for radioprotection of a mammalian cell line: agent alone; for Annexin V + / Annexin-V + PI / Live Cells / PI: hFOB cells 6 days after IR, adenosine 10 mM, MnCl2 0.25 mM, added 3 h before IR
Procedure: Apoptosis of Human Fetal Osteoblastic 1.19 cell line from ATCC (hFOB) was determined by death and apoptotic markers (Annexin V and propidium iodide PI) using a flow cytometry assay. In brief, hFOB cells were cultured in DMEM-F12 with 10% fetal bovine serum, 2.5 mM L-glutamine and 1% antibiotic to full confluency followed by treatment for experimental groups with adenosine (10 mM) or MnCl2 (0.25 mM) or adenosine and MnCl2 for 6 days period starting 3 h before IR. Apoptotic cell death was measured by flow cytometry with Annexin V and PI staining 6 days after IR. hFOB cells also were plated (1×10^3/well, 6-well plate) for clonogenic survival assay after IR. Colonies were counted 10 days later.
For the assays, adenosine+/−0.25 mM Mn(II) was added 3 hours prior to irradiation. Cells were assayed 6 days after irradiation by flow cytometry. Annexin-V conjugates allow for the identification of cell surface changes that occur early during the apoptotic process using flow cytometry. Early in the apoptotic process, phosphatidylserine becomes exposed on the cell surface. Propidium Iodide (PI) in un-fixed cells discriminates between apoptosis and necrosis on the basis of dye exclusion. While necrotic cells lose membrane integrity early on in their death throws, apoptotic cells may have compromised membranes.

restriction enzyme BamH1 = molecular target: T1, restriction enzyme BamH1 (Bacillus amyloliquefaciens, UniProt P23940); assay type: biochemical; conditions: exposure to 17,500 Gy; 25 mM potassium phosphate buffer; 3 mM adenosine, 1 mM MnCl2
T1 sequence (P23940 1-213): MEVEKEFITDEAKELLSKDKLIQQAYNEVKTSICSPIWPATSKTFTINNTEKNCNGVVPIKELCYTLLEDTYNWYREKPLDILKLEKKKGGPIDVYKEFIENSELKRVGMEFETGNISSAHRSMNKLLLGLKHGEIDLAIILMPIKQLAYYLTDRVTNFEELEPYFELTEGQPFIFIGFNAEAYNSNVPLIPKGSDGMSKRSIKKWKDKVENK
Procedure: Post-irradiation functionality of restriction enzyme BamH1 after indicated treatment and incubation with 1-DNA.

[1] = system: Purified E. coli proteins; test: protein carbonyl assay of purified E. coli proteins irradiated in vitro; assay type: biochemical; conditions: for prevention of ionizing radiation (IR)-induced protein oxidation (carbonylation) in vitro: purified E. coli proteins incubated with the agent during irradiation, Carbonyl Western blot
Procedure: Purified E. coli proteins were incubated in PP-, EC-, or DR-ultra-filtrated extract during irradiation, and subjected to a protein carbonyl assay.
Purified E. coli proteins were incubated with the indicated agents.

Row | SMILES | radioprotection of a mammalian cell line (hFOB cells) | Annexin V + (hFOB cells; 0 Gy) [%] | Annexin-V + PI (hFOB cells; 0 Gy) [%] | Live Cells (hFOB cells; 0 Gy) [%] | PI (hFOB cells; 0 Gy) [%] | Annexin V + (hFOB cells; 8 Gy) [%] | Annexin-V + PI (hFOB cells; 8 Gy) [%] | Live Cells (hFOB cells; 8 Gy) [%] | PI (hFOB cells; 8 Gy) [%] | BamH1 functionality after irradiation (restriction enzyme BamH1) | protection of proteins from oxidation during irradiation ([1]; potassium phosphate buffer (PPB/25 mM)+15 mM adenosine, compared to buffer alone) | prevention of ionizing radiation (IR)-induced protein oxidation (carbonylation) in vitro [1]
1 | Nc1ncnc2c1ncn2[C@@H]1O[C@H](CO)[C@@H](O)[C@H]1O [Adenosine, adenosine] | radioprotective | 2 | 1 | 85 | 13 | 3 | 2 | 85 | 10 | not | highly protected from oxidation | prevent ionizing radiation (IR)-induced protein oxidation in vitro
2 | [Cl][Mn][Cl] [Mn, MnCl2] | radioprotective | 0 | 0 | 86 | 14 | 21 | 2 | 70 | 7 | not |  | 
3 | O=c1ccn([C@@H]2O[C@H](CO)[C@@H](O)[C@H]2O)c(=O)[nH]1 [uridine] |  |  |  |  |  |  |  |  |  |  |  | prevent ionizing radiation (IR)-induced protein oxidation in vitro
